# Data from patent publication US20260317367A1, “SALTS INCLUDING CRYSTALLINE SALTS OF 25-HYDROXY-CHOLEST-5-EN-3-SULFATE AND METHODS FOR PREPARING SAME” (Durect Corporation, priority 2022, published 2026).
# Structures can show the parent of a compound that is named as a salt. Where two headings read alike, the source gives them in different places.
# Assays:
# Format in all cases: physicochemical
# [1] = Overall rank order of powder flowability (angle of repose and Hausner ratio); details: for Powder flowability, overall (in words): angle of repose and compressibility index/Hausner ratio combined; for Angle of Repose Rank Order / Hausner Ratio Rank Order / Overall Rank Order (Total Score): lower is better flow; for Overall Rank Order (Total Score): sum of both ranks
# From the text: Table C5 was generated by adding the relative rank order of the 25HC3S salts for angle of repose and Hausner ratio results, and creating an Over All Rank Order of the salts powder flowability. The salts with the lower overall rank order score had better powder flowability.
# [2] = Dynamic vapor sorption (DVS), hygroscopicity; details: DVS; for Water uptake (weight gain) up to about 95% relative humidity: 5% to about 95% RH; for Reversibility of water uptake (in words): RH reduced from 95% to 5%
# [3] = Hausner ratio and compressibility index of 25HC3S salts; details: for Compressibility Index: Table C3 heads this index in %
# How it was run: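 Powder poured into a 5 mL graduated cylinder to about 5.0 mL (Vo), tapped 200 then 100 more times on a hard surface; final volume Vf recorded after 300 taps. Compressibility index and Hausner ratio calculated from Vo and Vf; flow character classed per USP <1174>.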
# [4] = Differential scanning calorimetry (DSC), thermal decomposition / endothermic transition; details: for First significant endothermic transition (DSC): indicative of thermal degradation or solid-state transformation
# How it was run: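 Sample in a hermetically sealed aluminium pan with pierced lid, reference an empty aluminium pan. Heated from 30 °C to 350 °C or 30 °C to 250 °C at 10 °C/min. Instrument calibrated with indium, tin, zinc, octane and phenyl salicylate.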
# [5] = Solubility of 25HC3S salts after one day at room temperature (HPLC, as free acid); details: for Solubility in FaSSGF: Fasted State Simulated Gastric Fluid, pH 1.6, room temperature; for Solubility in FeSSIF: Fed State Simulated Intestinal Fluid, pH 4.9 to 5.0, room temperature
# How it was run: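 HPLC quantified the clear supernatant after centrifugation, with organic-solvent samples diluted in water:MeOH 95:5 and aqueous ones undiluted; results are mg/mL as free acid (LOD 0.0007 mg/mL). Each salt was first equilibrated as a suspension with excess solid for one day on a room-temperature shaker.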
# [6] = listed as crystalline 25HC3S benzathine
# [7] = room temperature, one day, listed as crystalline 25HC3S benzathine
# [8] = room temperature, one day, listed as benzathine salt of 25HC3S
# [9] = one day, as free acid, LOD 0.0007 mg/mL
# [10] = one day, as free acid, 1440 min
# [11] = listed as 25HC3S diethanolamine
# [12] = room temperature, one day, listed as crystalline 25HC3S diethanolamine
# [13] = listed as 25HC3S t-butylammonium
# [14] = listed as crystalline 25HC3S t-butylammonium
smiles,measurement,setting,value
CC(CCCC(C)(C)O)C1CCC2C3CC=C4CC(OS(=O)(=O)O)CCC4(C)C3CCC12C (centres unmarked) [Salt #9],"Powder flowability, overall (in words)",[1]; listed as benzathine,next group
same,Angle of Repose Rank Order,[1]; listed as 25HC3S benzathine,12
same,Hausner Ratio Rank Order,[1]; listed as 25HC3S benzathine,7
same,Overall Rank Order (Total Score),[1]; listed as 25HC3S benzathine,19
same,Water uptake (weight gain) up to about 95% relative humidity,[2]; [6],less than 0.5%
same,Reversibility of water uptake (in words),[2]; [6],reversibly lose all that water
same,Hygroscopicity (in words),[2]; [6],low hygroscopicity
same,Compressibility Index,[3]; listed as 25HC3S benzathine,29
same,Hausner Ratio,[3]; listed as 25HC3S benzathine,1.40
same,First significant endothermic transition (DSC),[4]; listed as benzathine,~211 °C
same,Solubility in 5% Dextrose,"[5]; 5% dextrose, room temperature, one day, as free acid, LOD 0.0007 mg/mL",No solubilized drug was detected
same,Solubility in FaSSGF (in words),[5]; [7],low solubility
same,Solubility in FaSSIF (in words),[5]; [8],low solubility
same,Solubility in FaSSGF,[5]; [9],no solubilized drug was detected
same,Solubility in FaSSIF,"[5]; Fasted State Simulated Intestinal Fluid, room temperature, one day, as free acid, 1440 min",4 µg/mL
same,Solubility in FeSSIF (in words),[5]; [8],low solubility
same,Solubility in FeSSIF,[5]; [10],25 µg/mL
same,Solubility in all aqueous and organic solvents (in words),[5]; all the aqueous and organic solvents examined,lowest solubility
same,Solubility in saline / 0.9% sodium chloride (in words),[5]; [7],low solubility
same,solubility at 24 h,"[5]; water, room temperature, one day, as 25HC3S free acid, read-out: Solubility in water",6 µg/mL
CC(CCCC(C)(C)O)C1CCC2C3CC=C4CC(OS(=O)(=O)O)CCC4(C)C3CCC12C (centres unmarked) [Salt #10],"Powder flowability, overall (in words)",[1]; listed as diethanolamine,poorer flowability
same,Angle of Repose Rank Order,[1]; [11],14
same,Hausner Ratio Rank Order,[1]; [11],9
same,Overall Rank Order (Total Score),[1]; [11],23
same,Relative humidity above which the salt is hygroscopic,[2],above 75 % relative humidity
same,Compressibility Index,[3]; [11],34
same,Hausner Ratio,[3]; [11],1.52
same,First significant endothermic transition (DSC),[4]; listed as diethanolamine,~181 °C
same,Solubility in FaSSGF (in words),"[5]; room temperature, one day",high solubility
same,Solubility in FaSSIF (in words),"[5]; room temperature, one day",high solubility
same,Solubility in FaSSIF (in words),[5]; [12],relatively high solubility
same,Solubility in FeSSIF (in words),"[5]; room temperature, one day",high solubility
same,Solubility in FeSSIF (in words),[5]; [12],relatively high solubility
same,Solubility in FeSSIF,[5]; [10],858 µg/mL
same,Solubility in methanol (in words),"[5]; MeOH, room temperature, one day",did not reach saturation
same,Solubility in saline / 0.9% sodium chloride (in words),[5]; [12],low solubility
CC(CCCC(C)(C)O)C1CCC2C3CC=C4CC(OS(=O)(=O)O)CCC4(C)C3CCC12C (centres unmarked) [Salt #12],"Powder flowability, overall (in words)",[1]; listed as t-butylammonium,poorer flowability
same,Angle of Repose Rank Order,[1]; [13],13
same,Hausner Ratio Rank Order,[1]; [13],8
same,Overall Rank Order (Total Score),[1]; [13],21
same,Water uptake (weight gain) up to about 95% relative humidity,[2]; [14],less than 0.5%
same,Reversibility of water uptake (in words),[2]; [14],reversibly lose all that water
same,Hygroscopicity (in words),[2]; [14],low hygroscopicity
same,Compressibility Index,[3]; [13],33
same,Hausner Ratio,[3]; [13],1.48
same,First significant endothermic transition (DSC),[4]; listed as t-butylammonium,~201 °C
same,Solubility in FaSSGF (in words),"[5]; room temperature, one day",high solubility
same,Solubility in FaSSIF (in words),"[5]; room temperature, one day",high solubility
same,Solubility in FaSSIF (in words),"[5]; room temperature, one day, listed as crystalline 25HC3S t-butylammonium",relatively high solubility
same,Solubility in FeSSIF (in words),"[5]; room temperature, one day",high solubility
C[C@H](CCCC(C)(C)O)[C@H]1CC[C@H]2[C@@H]3CC=C4C[C@@H](OS(=O)(=O)O)CC[C@]4(C)[C@H]3CC[C@]12C [Salt #14],"Powder flowability, overall (in words)",[1]; listed as crystalline 25HC3S lysine,relatively good flowability
same,"Powder flowability, overall (in words)",[1]; listed as lysine,top three
same,Angle of Repose Rank Order,[1],2
same,Hausner Ratio Rank Order,[1],2
same,Overall Rank Order (Total Score),[1],4
same,Relative humidity above which the salt is hygroscopic,[2],above 75 % relative humidity
same,Hausner Ratio,[3],1.32
same,Compressibility Index,[3],24
same,Decomposition temperature (DSC),"[4]; DSC, 10° C./min",about 186 °C
same,First significant endothermic transition (DSC),[4],~186 °C
same,solubility at 24 h,"[5]; 0.9% nacl, room temperature, one day, as free acid, ND = not detected, detection limit 0.7 μg/mL, read-out: Solubility in 0.9% NaCl",8 µg/mL
same,solubility at 24 h,"[5]; 5% dextrose, room temperature, one day, as free acid, ND = not detected, detection limit 0.7 μg/mL, read-out: Solubility in 5% Dextrose",38 µg/mL
same,Solubility in FaSSGF (in words),"[5]; room temperature, one day",low solubility
same,Solubility in FaSSGF,[5]; [9],no solubilized drug was detected
same,solubility at 24 h,"[5]; acetonitrile, organic solvent or mixture, acetonitrile, room temperature, one day, as free acid, read-out: Solubility in ACN",800 µg/mL
same,solubility at 24 h,"[5]; ethanol, organic solvent or mixture, ethanol, room temperature, one day, as free acid, ≥ = did not reach saturation, read-out: Solubility in EtOH",1700 µg/mL
same,solubility at 24 h,"[5]; fassif, room temperature, one day, as free acid, read-out: Solubility in FaSSIF",72 µg/mL
same,solubility at 24 h,"[5]; fessif, room temperature, one day, as free acid, read-out: Solubility in FeSSIF",676 µg/mL
same,solubility at 24 h,"[5]; isopropyl alcohol, organic solvent or mixture, isopropyl alcohol, room temperature, one day, as free acid, read-out: Solubility in IPA",900 µg/mL
same,solubility at 24 h,"[5]; methanol, organic solvent or mixture, methanol, room temperature, one day, as free acid, ≥ = did not reach saturation, read-out: Solubility in MeOH",5900 µg/mL
same,solubility at 24 h,"[5]; water, room temperature, one day, as free acid, ND = not detected, detection limit 0.7 μg/mL, read-out: Solubility in H2O",40 µg/mL
